Measurements reported in US7432257B2, “Piperdinyl-phenoxazine and phenothiazine derivatives as δ-opioid modulators” (Janssen Pharmaceutica N.V., priority 2005, dated 2008).

Tests used:
delta opioid receptor = biological target: T1, delta opioid receptor (Rattus norvegicus, UniProt P33533); test: Rat Brain Delta Opioid Receptor Binding Assay; conditions: rat forebrain membranes; [3H]DPDPE or [3H]naltrindole, 25° C., 2.5 h
T1 construct: from tissue; host or cells: Forebrain of male Wistar rats, particulate membrane preparation
T1 sequence (P33533 whole entry): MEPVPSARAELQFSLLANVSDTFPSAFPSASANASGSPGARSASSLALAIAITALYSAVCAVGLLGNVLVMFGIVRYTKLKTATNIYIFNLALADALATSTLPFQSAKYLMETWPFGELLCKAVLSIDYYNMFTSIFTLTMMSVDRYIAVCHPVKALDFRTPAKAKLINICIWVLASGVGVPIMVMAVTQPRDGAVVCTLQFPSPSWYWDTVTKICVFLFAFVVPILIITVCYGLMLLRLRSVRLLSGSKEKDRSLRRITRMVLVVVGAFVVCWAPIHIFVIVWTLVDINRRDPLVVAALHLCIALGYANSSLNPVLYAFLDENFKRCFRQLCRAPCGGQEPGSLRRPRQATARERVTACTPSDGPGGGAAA

mu opioid receptor = biological target: T2, mu opioid receptor (Rattus norvegicus, UniProt P33535); test: Rat Brain Mu Opioid Receptor Binding Assay; conditions: rat forebrain membranes; [3H]DAMGO, 25° C., 2.5 h
T2 construct: from tissue; host or cells: Forebrain of male Wistar rats, particulate membrane preparation
T2 sequence (P33535 whole entry): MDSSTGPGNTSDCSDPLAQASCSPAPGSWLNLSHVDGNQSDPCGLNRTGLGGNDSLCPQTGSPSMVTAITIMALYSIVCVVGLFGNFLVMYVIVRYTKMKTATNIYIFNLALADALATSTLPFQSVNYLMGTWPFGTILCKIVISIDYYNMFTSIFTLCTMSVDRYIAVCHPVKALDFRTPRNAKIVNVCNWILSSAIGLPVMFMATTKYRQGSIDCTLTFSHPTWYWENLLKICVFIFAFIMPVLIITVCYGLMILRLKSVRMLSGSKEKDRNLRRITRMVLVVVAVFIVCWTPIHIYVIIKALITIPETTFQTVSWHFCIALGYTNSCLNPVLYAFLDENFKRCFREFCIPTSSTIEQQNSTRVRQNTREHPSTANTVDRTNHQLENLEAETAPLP

[1] = biological target: hMOR (CHO-hMOR cell membranes) (Homo sapiens, UniProt P35372); test: [35S]GTPγS Binding Assays in CHO-hMOR Cell Membranes; type: biochemical; conditions: read-out: mu GTPγS EC50
Chain of hMOR (CHO-hMOR cell membranes) (P35372 whole entry): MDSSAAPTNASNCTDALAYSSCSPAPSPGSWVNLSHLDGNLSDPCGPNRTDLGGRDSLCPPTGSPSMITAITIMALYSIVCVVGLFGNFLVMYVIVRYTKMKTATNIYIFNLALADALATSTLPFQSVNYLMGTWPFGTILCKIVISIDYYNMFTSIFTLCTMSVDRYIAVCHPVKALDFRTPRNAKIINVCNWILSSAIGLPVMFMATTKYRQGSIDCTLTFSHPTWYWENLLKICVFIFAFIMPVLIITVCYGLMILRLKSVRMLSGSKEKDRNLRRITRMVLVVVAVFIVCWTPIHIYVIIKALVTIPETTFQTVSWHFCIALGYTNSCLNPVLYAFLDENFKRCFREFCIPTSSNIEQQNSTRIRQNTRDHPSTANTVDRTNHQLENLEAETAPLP

[2] = biological target: T3, delta opioid receptor (NG108-15 cell membranes) (Mus musculus, UniProt P32300); test: [35S]GTPγS Binding Assay in NG108-15 Cell Membranes (Delta Opioid); type: biochemical
T3 construct: NG108-15 cell membranes were purchased from Applied Cell Sciences (Rockville, Md.); host or cells: NG108-15 cell membranes (purchased)
T3 sequence (P32300 whole entry): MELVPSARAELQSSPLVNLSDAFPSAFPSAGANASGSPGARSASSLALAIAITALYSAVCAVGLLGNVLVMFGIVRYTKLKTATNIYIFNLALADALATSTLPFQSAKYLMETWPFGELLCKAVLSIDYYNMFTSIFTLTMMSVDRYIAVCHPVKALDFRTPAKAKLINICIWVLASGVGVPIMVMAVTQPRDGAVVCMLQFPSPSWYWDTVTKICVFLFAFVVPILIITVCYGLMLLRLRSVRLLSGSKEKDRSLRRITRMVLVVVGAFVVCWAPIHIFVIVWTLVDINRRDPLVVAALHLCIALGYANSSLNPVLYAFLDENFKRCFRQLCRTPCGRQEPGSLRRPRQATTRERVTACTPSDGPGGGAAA

Row | Structure (SMILES) | Ki (delta opioid receptor) [µM] | Ki (mu opioid receptor) [µM] | EC50 [1] [µM] | EC50 [2] [µM]
1 | CC(=O)Nc1ccccc1-c1ccc2c(c1)Oc1ccccc1N2C1CCN(Cc2ccoc2)CC1 [Compound 3j, N-{2-[10-(1-Furan-3-ylmethyl-piperidin-4-yl)-10H-phenoxazin-3-yl]-phenyl}-acetamide] | 2.28 |  |  | 
2 | CC(=O)Nc1ccccc1-c1ccc2c(c1)Oc1ccccc1N2C1CCN(Cc2ncc[nH]2)CC1 [Compound 7j, N-(2-{10-[1-(1H-Imidazol-2-ylmethyl)-piperidin-4-yl]-10H-phenoxazin-3-yl}-phenyl)-acetamide] | 0.249 |  |  | 
3 | O=C(c1ccc2c(c1)Oc1ccccc1N2C1CCN(Cc2ccoc2)CC1)N1CC[C@H](O)C1 [Compound 16r, [10-(1-Furan-3-ylmethyl-piperidin-4-yl)-10H-phenoxazin-3-yl]-(3-(S)-Hydroxypyrrolidin-1-yl)-methanone] | 0.189 |  |  | 
4 | COc1cccc2c1Oc1cc(C(=O)N(C)C)ccc1N2C1CCN(Cc2ccccc2)CC1 [Compound 5d, 10-(1-Benzyl-piperidin-4-yl)-6-methoxy-10H-phenoxazine-3-carboxylic acid dimethylamide] | 0.374 |  |  | 
5 | c1ccc(CN2CCC(N3c4ccccc4Oc4cc(-c5nnn[nH]5)ccc43)CC2)nc1 [Compound 10a, 10-(1-Pyridin-2-ylmethyl-piperidin-4-yl)-3-(1H-tetrazol-5-yl)-10H-phenoxazine] | 0.227 |  |  | 
6 | c1ccc2c(c1)Oc1cc(-c3nnn[nH]3)ccc1N2C1CCN(Cc2ncc[nH]2)CC1 [Compound 7a, 10-[1-(1H-Imidazol-2-ylmethyl)-piperidin-4-yl]-3-(1H-tetrazol-5-yl)-10H-phenoxazine] | 0.655 | 2.77 |  | 
7 | NC(=O)c1ccc2c(c1)Oc1ccccc1N2C1CCNCC1 [Compound 12a, 10-Piperidin-4-yl-10H-phenoxazine-3-carboxylic Acid amide] | 0.682 | 1.24 | > 10 | 9.25
8 | c1ccc(CN2CCC(N3c4ccccc4Oc4cc(-c5ccncc5)ccc43)CC2)nc1 [Compound 5k, 3-Pyridin-4-yl-10-(1-pyridin-2-ylmethyl-piperidin-4-yl)-10H-phenoxazine] | 1.2 |  |  | 
9 | CC(=O)Nc1ccccc1-c1ccc2c(c1)Oc1ccccc1N2C1CCN(Cc2ccccn2)CC1 [Compound 5j, N-{2-[10-(1-Pyridin-2-ylmethyl-piperidin-4-yl)-10H-phenoxazin-3-yl]-phenyl}-acetamide] | 0.576 |  |  | 
10 | O=C(c1ccc2c(c1)Oc1ccccc1N2C1CCN(Cc2ccccn2)CC1)N1CC[C@H](O)C1 [Compound 15r, (3-(S)-Hydroxypyrrolidin-1-yl)-[10-(1-pyridin-2-ylmethyl-piperidin-4-yl)-10H-phenoxazin-3-yl]-methanone] | 0.203 |  |  | 
11 | COc1cccc2c1Oc1cc(-c3ccncc3)ccc1N2C1CCNCC1 (single isomer, unassigned) [Compound 5p, 6-Methoxy-10-piperidin-4-yl-3-pyridin-4-yl-10H-phenoxazine] | 0.589 |  |  | 
12 | O=C(c1ccc2c(c1)Oc1ccccc1N2C1CCN(Cc2ccccc2)CC1)N1CC[C@H](O)C1 [Compound 13r, [10-(1-Benzyl-piperidin-4-yl)-10H-phenoxazin-3-yl]-(3-(S)-Hydroxypyrrolidin-1-yl)-methanone] | 0.465 |  |  | 
13 | CCN(CC)C(=O)c1ccc2c(c1)Oc1ccccc1N2C1CCN(Cc2nccs2)CC1 [Compound 9r, 10-(1-Thiazol-2-ylmethyl-piperidin-4-yl)-10H-phenoxazine-3-carboxylic acid diethylamide] | 0.3 |  |  | 
14 | CCN(CC)C(=O)c1ccc2c(c1)Oc1ccccc1N2C1CCN(Cc2ccoc2)CC1 [Compound 10r, 10-(1-Furan-3-ylmethyl-piperidin-4-yl)-10H-phenoxazine-3-carboxylic acid diethylamide] | 0.655 |  |  | 
15 | c1ccc(CN2CCC(N3c4ccccc4Sc4cc(-c5cccnc5)ccc43)CC2)nc1 [Compound 2f, 3-Pyridin-3-yl-10-(1-pyridin-2-ylmethyl-piperidin-4-yl)-10H-phenothiazine] | 0.365 | 2.85 |  | 
16 | CC(=O)Nc1ccccc1-c1ccc2c(c1)Oc1ccccc1N2C1CCN(Cc2ccccc2)CC1 [Compound 5h, N-{2-[10-(1-Benzyl-piperidin-4-yl)-10H-phenoxazin-3-yl]-phenyl}-acetamide] | 0.4 | 3.32 |  | 
17 | N#Cc1ccc2c(c1)Oc1ccccc1N2C1CCNCC1 [Compound 11a, 10-Piperidin-4-yl-10H-phenoxazine-3-carbonitrile] | 0.436 | 5.82 | > 10 | 1.93
18 | Oc1cccc2c1Oc1cc(-c3ccncc3)ccc1N2C1CCNCC1 (single isomer, unassigned) [Compound 4p, 10-Piperidin-4-yl-7-pyridin-4-yl-10H-phenoxazin-4-ol] | 0.535 |  |  | 
19 | CC(=O)Nc1ccccc1-c1ccc2c(c1)Sc1ccccc1N2C1CCN(Cc2ccccn2)CC1 [Compound 6g, N-{2-[10-(1-Pyridin-2-ylmethyl-piperidin-4-yl)-10H-phenothiazin-3-yl]-phenyl}-acetamide] | 0.255 | 0.837 |  | 
20 | CCNC(=O)c1ccc2c(c1)Sc1ccccc1N2C1CCN(Cc2cccs2)CC1 [Compound 4m, 10-(1-Thiophen-2-ylmethyl-piperidin-4-yl)-10H-phenothiazine-3-carboxylic acid ethylamide] | 0.784 |  |  | 
